Data as given in PubChem BioAssay AID624491 (Broad Institute, 2012).

System: D54 ERlucT glycosylation luciferase reporter, luminescence, 24 h
Test: N-linked glycosylation inhibitors, luciferase reporter, dose response, D54 ERlucT cells, luminescence, cherry-picks (AID 624491);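 also: signal gain reflects blocked N-linked glycosylation of a luciferase reporter; actives raise luciferase signal so AC26 marks activators of the reporter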

Row | SMILES | AC26 [nM]
1 | CN(C)C(CNC(=O)CSc1nc2sc3c(c2c(=O)n1C)CCCC3)c1ccccc1 (centres undefined) | 387
2 | Cc1cc(=O)oc2cc(OCC(=O)N3c4ccccc4CC3C)ccc12 (centres undefined) | 1090
3 | COc1cc(Nc2nc3c(N)cc(C(F)(F)F)cc3nc2-c2ccccc2)cc(OC)c1OC | 868
4 | Oc1ccc(Nc2nc(NCC3CCCO3)c3ccccc3n2)cc1 (centres undefined) | 1110
5 | Cc1ccc(CNC(=O)Cc2ccc(Br)cc2)cc1 | 6690
6 | O=C1/C(=C\c2ccc(Cl)cc2)CCC1CNc1ccc(Cl)cc1 (centres undefined) | 5490
7 | O=C(N/N=C/c1ccccn1)c1cc(-c2ccncc2)nc2ccccc12 | 499
8 | CCCn1nc(C(=O)N2CC(=O)Nc3ccccc32)c2ccccc2c1=O | 4890
9 | C=CCn1c(O)c(C(CC)=NC(C)c2ccccc2)c(=O)[nH]c1=O (centres undefined) | 3140
10 | CCOC(=O)c1c(C)nc2c(c1-c1cc(OC)c(OC)c(OC)c1)C(=O)c1ccccc1-2 | 1560
11 | COc1cc(C(=O)OCCc2cc3ccccc3c(=O)o2)cc(OC)c1OC | 562
12 | Cc1[nH]c(C)c(C(=O)/C=C/c2ccc([N+](=O)[O-])cc2)c1C | 633
13 | NC(=O)CC(NC(=O)Cc1ccc(Br)cc1)c1ccc(NC2CC3CCC2C3)c([N+](=O)[O-])c1 (centres undefined) | 32.6
14 | CC(NC(=O)c1cccc2ccccc12)c1ccc2c(c1)CCCC2 (centres undefined) | 6480
15 | O=C(N/N=C/c1ccccc1)c1sccc1OCc1ccc(F)cc1 | 2600
16 | COc1ccc(Cl)cc1S(=O)(=O)Nc1ccc2c(c1)n(C)c(=O)n2C | 1470
17 | CC(Oc1ccc2c(c1)c1ccnc3c4ccccc4c(=O)n2c13)C(=O)NCCN1CCOCC1 (centres undefined) | 6140
18 | COc1ccc(C2=NOC(C(=O)NCc3ccco3)C2)cc1 (centres undefined) | 2400
19 | COc1ccc(OC)c(Nc2ncnc3c2cnn3-c2cccc(C)c2)c1 | 3240
20 | COCCCNc1nnc(Cc2ccc(Cl)cc2)c(=O)[nH]1 | 1050
21 | COc1ccc(-c2cc(C)no2)cc1S(=O)(=O)Nc1ccccc1 | 3740
22 | O=C(Nc1ccccc1O)c1ccc(NS(=O)(=O)c2cccc3cccnc23)cc1 | 3930

Row | SMILES | AC26 [nM]
23 | COc1ccc(C(=O)c2ccc(OC)c(N)c2)cc1N | 143
24 | COc1cc2c(cc1OC)C(c1ccccc1)N(C(=O)c1ccccc1)CC2 (centres undefined) | 869
25 | COc1ccc(S(=O)(=O)Nc2cc3c(cc2C(C)=O)OCO3)cc1 | 5560
26 | CCCCCCn1c(=O)n2n(c1=O)[C@@H]1CN(S(=O)(=O)c3ccc(C)cc3)C[C@]1(O)[C@@H](OC(=O)NCc1ccccc1)C2 | 763
27 | CCOC(=O)Nc1nc2ccc(Cn3cccc3)cc2[nH]1 | 674
28 | N#CC1=C(N)Oc2c(c(=O)sc3ccccc23)C1c1cccnc1 (centres undefined) | 2860
29 | C=CCOc1ccccc1C(=O)/C=C1/C(=O)Nc2ccccc21 | 3000
30 | Cc1nc2ncccn2c1-c1csc(Nc2ccc(N(C)C)cc2)n1 | 31.5
31 | Cc1ccc2c(c1)c1ccc3c(c1n2C)C(=O)C=CC3=O | 948
32 | CC(=O)c1cccc(-c2ccnc3c2CC(C(=O)NCc2ccc(F)c(F)c2)O3)c1 (centres undefined) | 1370
33 | Cc1ccc(C(=O)N2CCN(Cc3ccccc3)CC2)cc1S(=O)(=O)N1CCOCC1 | 1670
34 | CCN(CC)CCCNC(=O)CSc1c2c(nc3cc(Cl)ccc13)CCCC2 | 11400
35 | CCCCc1ccc(N/C(N)=N/c2nc(C)cc(C)n2)cc1 | 4690
36 | O=C(Cc1ccc(-c2ccccc2)cc1)NCc1ccccc1 | 27.8
37 | CSc1cccc(NC(=O)CCCOc2cc(=O)n(C)c3ccccc23)c1 | 4940
38 | O=C(NCc1ccco1)C1CC(c2ccc(C(F)(F)F)cc2)=NO1 (centres undefined) | 9730
39 | COc1ccc2c(c1)OC[C@H]1[C@H]2N2C(=O)c3cc(OC)ccc3NC(=O)[C@@]2(C)[C@H]1c1ccccc1 | 1360
40 | Clc1ccc(CSc2cnnc3ccccc23)cc1Cl | 13500
41 | COc1cc(-n2c(N)c(C(=O)NCc3ccco3)c3nc4ccccc4nc32)cc(OC)c1OC | 2090
42 | CCN(CC)CCNc1ccc(C)c2sc3ccc(O)cc3c(=O)c12 | 7.74
43 | Nc1nc(-c2ccccc2)cc(N2CCCCC2)n1 | 4270
44 | CC1(C(=O)NCc2ccccc2)Cc2c(-c3cccc(C(N)=O)c3)ccnc2O1 (centres undefined) | 2100
